Results on 2 compounds are retold here after ChEMBL document CHEMBL1148081, “Corticatic acids A-C, antifungal acetylenic acids from the marine sponge, Petrosia corticata” (J Nat Prod, 1994).

Calls of active or inactive are those of the source. The calls are words filed in the database; no cut-off is given here.

The experiment deals with Umbelopsis ramanniana. Kind of experiment: Antimicrobial activity against Mortierella ramanniana. It is filed as functional, organism-based.

As to `C#CC(O)/C=C/CCCCCC#CC/C=C\CCCCCCCCCCC/C=C\C#CC(=O)O` (configuration not stated), the result was Active. For `C#CC(O)/C=C/CCCCCC#CC/C=C\CCCCCCCCCCC/C=C/C#CC(=O)O` (configuration not stated) the value was “Active”.
